Reference: ChEMBL document CHEMBL4219254, “Harnessing biosynthesis and quantitative NMR for late stage functionalization of lead molecules: Application to the M1 positive allosteric modulator (PAM) program” (Bioorg Med Chem Lett, 2018)
Values belong to the molecule of their own block, whether it stands above or below them.

Experiments:
[1] = Permeability in RRCK cells; format: ADME, cell-based, Canis lupus familiaris, MDCKII-LE; details: dog, MDCK; read-out: permeability
[2] = Drug level in hamster liver microsomes treated with N-((3R,4S)-3-hydroxytetrahydro-2H-pyran-4-yl)-1-(4-(1-methyl-1H-pyrazol-3-yl)benzyl)-1H-pyrrolo[3,2-b]pyridine-3-carboxamide at 20 uM by UHPLC-UV-HRMS analysis; format: ADME, microsome; details: cricetinae
[3] = Drug metabolism in dexamethasone-induced rat liver microsomes assessed as formation of N-((3R,4S)-2,3-dihydroxytetrahydro-2H-pyran-4-yl)-5-methyl-4-(4-(thiazol-4-yl)benzyl)picolinamide at 20 uM after 60 mins by UHPLC-UV-HRMS analysis; format: ADME, microsome; details: 1 h
[4] = Drug metabolism in dexamethasone-induced rat liver microsomes assessed as formation of 4-(hydroxy(4-(thiazol-4-yl)phenyl)methyl)-N-((3R,4S)-3-hydroxytetrahydro-2H-pyran-4-yl)-5-methylpicolinamide at 20 uM after 60 mins by UHPLC-UV-HRMS analysis; format: ADME, microsome; details: 1 h
[5] = biological target: T1, Muscarinic acetylcholine receptor M1 (Homo sapiens, UniProt P11229); assay: Positive allosteric modulation of human muscarinic M1 receptor expressed in CHO cells assessed as increase in ACh-induced intracellular calcium level preincubated for 10 mins followed by ACh addition measured every 2 secs for 80 secs by Fluo-4 dye-based FLIPR assay; format: functional, cell-based
T1 sequence (P11229 whole entry): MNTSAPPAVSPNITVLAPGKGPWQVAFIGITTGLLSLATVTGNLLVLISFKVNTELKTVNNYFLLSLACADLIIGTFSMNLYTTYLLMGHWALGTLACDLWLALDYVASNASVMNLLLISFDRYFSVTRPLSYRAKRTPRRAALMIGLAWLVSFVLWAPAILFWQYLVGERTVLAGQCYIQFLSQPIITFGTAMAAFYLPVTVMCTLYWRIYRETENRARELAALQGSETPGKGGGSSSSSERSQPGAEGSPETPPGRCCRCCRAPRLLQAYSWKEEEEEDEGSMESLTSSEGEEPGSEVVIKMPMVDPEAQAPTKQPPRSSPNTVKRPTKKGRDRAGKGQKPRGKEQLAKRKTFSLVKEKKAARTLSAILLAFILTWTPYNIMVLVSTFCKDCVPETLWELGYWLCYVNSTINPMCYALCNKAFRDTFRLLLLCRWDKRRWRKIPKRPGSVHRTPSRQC

[6] = Drug level in rat liver microsomes treated with N-((3R,4S)-3-hydroxytetrahydro-2H-pyran-4-yl)-5-methyl-1-(4-(1-methyl-1H-pyrazol-3-yl)benzyl)-1H-pyrrolo[3,2-b]pyridine-3-carboxamide at 20 uM after 70 mins by UHPLC-UV-HRMS analysis; format: ADME, microsome
[7] = Intrinsic clearance in human liver microsomes; format: ADME, microsome; details: read-out: CLH
MDR1 = assay: Efflux ratio of permeability in MDCK cells expressing MDR1; format: ADME, cell-based, Canis lupus familiaris; details: dog
[8] = Drug level in rabbit liver microsomes treated with 4-(4-(1H-pyrazol-1-yl)benzyl)-N-((3R,4S)-3-hydroxytetrahydro-2H-pyran-4-yl)-5-methylpicolinamide at 20 uM after 60 mins by UHPLC-UV-HRMS analysis; format: ADME, Oryctolagus cuniculus, microsome
[9] = Drug level in guinea pig liver microsomes treated with 1-(4-(1H-pyrazol-1-yl)benzyl)-N-((1S,2S)-2-hydroxycyclohexyl)-1H-pyrrolo[3,2-b]pyridine-3-carboxamide at 20 uM after 75 mins by UHPLC-UV-HRMS analysis; format: ADME, Cavia porcellus, microsome; details: 1.25 h
[10] = Drug level in rabbit liver microsomes treated with 5-(4-(1H-pyrazol-1-yl)benzyl)-N-((1S,2S)-2-hydroxycyclohexyl)-1,6-dimethyl-2-oxo-1,2-dihydropyridine-3-carboxamide at 20 uM after 60 mins by UHPLC-UV-HRMS analysis; format: ADME, Oryctolagus cuniculus, microsome
[11] = Drug metabolism in rabbit liver microsomes assessed as formation of 5-(4-(1H-pyrazol-1-yl)benzyl)-N-((1S,2S)-2-hydroxycyclohexyl)-6-(hydroxymethyl)-1-methyl-2-oxo-1,2-dihydropyridine-3-carboxamide at 20 uM after 60 mins by UHPLC-UV-HRMS analysis; format: ADME, Oryctolagus cuniculus, microsome
[12] = Drug metabolism in rabbit liver microsomes assessed as formation of 5-(4-(1H-pyrazol-1-yl)benzyl)-N-((1S,2S)-2,4-dihydroxycyclohexyl)-1,6-dimethyl-2-oxo-1,2-dihydropyridine-3-carboxamide at 20 uM after 60 mins by UHPLC-UV-HRMS analysis; format: ADME, Oryctolagus cuniculus, microsome
[13] = Drug metabolism in rabbit liver microsomes assessed as formation of 5-(4-(1H-pyrazol-1-yl)benzyl)-N-((1S,2S)-2,5-dihydroxycyclohexyl)-6-methyl-2-oxo-1,2-dihydropyridine-3-carboxamide at 20 uM after 60 mins by UHPLC-UV-HRMS analysis; format: ADME, Oryctolagus cuniculus, microsome
[14] = Drug metabolism in rabbit liver microsomes assessed as formation of 5-(4-(1H-pyrazol-1-yl)benzyl)-N-((1S,2S)-2,4-dihydroxycyclohexyl)-6-(hydroxymethyl)-1-methyl-2-oxo-1,2-dihydropyridine-3-carboxamide at 20 uM after 60 mins by UHPLC-UV-HRMS analysis; format: ADME, Oryctolagus cuniculus, microsome
[15] = Drug level in dexamethasone-induced rat liver microsomes treated with N-((3R,4S)-3-hydroxytetrahydro-2H-pyran-4-yl)-5-methyl-4-(4-(thiazol-4-yl)benzyl)picolinamide at 20 uM after 60 mins by UHPLC-UV-HRMS analysis; format: ADME, microsome; details: 1 h
[16] = Drug metabolism in rabbit liver microsomes assessed as formation of 4-(4-(1H-pyrazol-1-yl)benzyl)-5-(hydroxymethyl)-N-((3R,4S)-3-hydroxytetrahydro-2H-pyran-4-yl)picolinamide at 20 uM after 60 mins by UHPLC-UV-HRMS analysis; format: ADME, Oryctolagus cuniculus, microsome
[17] = Drug metabolism in rabbit liver microsomes assessed as formation of 4-(4-(4-hydroxy-1H-pyrazol-1-yl)benzyl)-N-((3R,4S)-3-hydroxytetrahydro-2H-pyran-4-yl)-5-methylpicolinamide at 20 uM after 60 mins by UHPLC-UV-HRMS analysis; format: ADME, Oryctolagus cuniculus, microsome
[18] = Drug metabolism in rabbit liver microsomes assessed as formation of 4-(4-(1H-pyrazol-1-yl)benzyl)-N-((3R,4S)-2,3-dihydroxytetrahydro-2H-pyran-4-yl)-5-methylpicolinamide at 20 uM after 60 mins by UHPLC-UV-HRMS analysis; format: ADME, Oryctolagus cuniculus, microsome
[19] = Drug metabolism in rabbit liver microsomes assessed as formation of 4-(4-(1H-pyrazol-1-yl)benzyl)-N-((4S,5R)-2,5-dihydroxytetrahydro-2H-pyran-4-yl)-5-methylpicolinamide at 20 uM after 60 mins by UHPLC-UV-HRMS analysis; format: ADME, Oryctolagus cuniculus, microsome
[20] = Drug metabolism in rabbit liver microsomes assessed as formation of 4-((4-(1H-pyrazol-1-yl)phenyl)(hydroxy)methyl)-N-((3R,4S)-3-hydroxytetrahydro-2H-pyran-4-yl)-5-methylpicolinamide at 20 uM after 60 mins by UHPLC-UV-HRMS analysis; format: ADME, Oryctolagus cuniculus, microsome
[21] = Drug metabolism in rabbit liver microsomes assessed as formation of 4-(4-(1H-pyrazol-1-yl)benzyl)-5-methyl-N-((2R,3S)-1,2,5-trihydroxypentan-3-yl)picolinamide at 20 uM after 60 mins by UHPLC-UV-HRMS analysis; format: ADME, Oryctolagus cuniculus, microsome

Structure (SMILES): Cc1ccc2c(n1)c(C(=O)N[C@H]1CCOC[C@@H]1O)cn2Cc1ccc(-c2ccn(C)n2)cc1
Papp [1]: 21 ×10⁻⁶ cm/s

Structure (SMILES): O=C(N[C@H]1CCCC[C@@H]1O)c1cn(Cc2ccc(-n3cccn3)cc2)c2cccnc12
Papp [1]: 16.2 ×10⁻⁶ cm/s

Structure (SMILES): O=C(N[C@H]1CCOC[C@@H]1O)c1cn(Cc2ccc(-c3cc[nH]n3)cc2)c2cccnc12
Drug metabolism [2]: Metabolite_Detected

Drug metabolism [3]: Metabolite_Detected | Drug metabolism [4]: Metabolite_Detected
Structure (SMILES): Cc1cnc(C(=O)N[C@H]2CCOC[C@@H]2O)cc1Cc1ccc(-c2cscn2)cc1

Structure (SMILES): Cn1ccc(-c2ccc(Cn3cc(C(=O)N[C@H]4CCOC[C@@H]4O)c4nc(CO)ccc43)cc2)n1
EC50 [5]: 99 nM | Drug metabolism [6]: Metabolite_Detected

EC50 [5]: 338 nM | CLint scaled [7]: < 8 mL/min/kg | Papp [1]: 4.6 ×10⁻⁶ cm/s | efflux ratio (MDR1): 15.9 | Drug metabolism [8]: Metabolite_Detected
Structure (SMILES): O=C(N[C@H]1CCOC[C@@H]1O)c1cc(Cc2ccc(-n3cccn3)cc2)c(CO)cn1

Structure (SMILES): Cn1ccc(-c2ccc(Cn3cc(C(=O)N[C@H]4CC(O)OC[C@@H]4O)c4ncccc43)cc2)n1 (some centres not stated)
EC50 [5]: > 207 nM | Drug metabolism [2]: Metabolite_Detected

Structure (SMILES): Cn1ccc(-c2ccc(Cn3cc(C(=O)N[C@H]4CCOC[C@@H]4O)c4nc(C=O)ccc43)cc2)n1
EC50 [5]: 184 nM | Drug metabolism [6]: Metabolite_Detected

Structure (SMILES): O=C(N[C@H]1CCCC[C@@H]1O)c1cn(Cc2ccc([N+]3([O-])C=CC=N3)cc2)c2cccnc12 (some centres not stated)
EC50 [5]: 34 nM | Drug metabolism [9]: Metabolite_Detected

EC50 [5]: 70 nM | Drug metabolism [8]: Metabolite_Detected
Structure (SMILES): Cc1cnc(C(=O)N[C@H]2CCOC[C@@H]2O)cc1Cc1ccc(-n2cc(O)cn2)cc1

EC50 [5]: 40 nM | Drug metabolism [10]: Metabolite_Detected
Structure (SMILES): Cn1c(CO)c(Cc2ccc(-n3cccn3)cc2)cc(C(=O)N[C@H]2CCCC[C@@H]2O)c1=O

efflux ratio (MDR1): 2.7 | Drug metabolism [11]: Metabolite_Detected | Drug metabolism [12]: Metabolite_Detected | Drug metabolism [13]: Metabolite_Detected | Drug metabolism [14]: Metabolite_Detected
Structure (SMILES): Cc1c(Cc2ccc(-n3cccn3)cc2)cc(C(=O)N[C@H]2CCCC[C@@H]2O)c(=O)n1C

EC50 [5]: > 3000 nM | Drug metabolism [8]: Metabolite_Detected
Structure (SMILES): Cc1cnc(C(=O)N[C@H]2CC(O)OC[C@@H]2O)cc1Cc1ccc(-n2cccn2)cc1 (some centres not stated)

EC50 [5]: 511 nM | Drug metabolism [8]: Metabolite_Detected
Structure (SMILES): Cc1cnc(C(=O)N[C@H]2CCOC(O)[C@@H]2O)cc1Cc1ccc(-n2cccn2)cc1 (some centres not stated)

EC50 [5]: > 300 nM | Drug metabolism [8]: Metabolite_Detected
Structure (SMILES): Cc1cnc(C(=O)N[C@@H](CCO)[C@@H](O)CO)cc1Cc1ccc(-n2cccn2)cc1

Structure (SMILES): O=C(N[C@H]1CC(O)CC[C@@H]1O)c1cn(Cc2ccc(-n3cccn3)cc2)c2cccnc12 (some centres not stated)
EC50 [5]: > 72 nM | Drug metabolism [9]: Metabolite_Detected

EC50 [5]: 162 nM | Drug metabolism [15]: Metabolite_Detected
Structure (SMILES): Cc1cnc(C(=O)N[C@H]2CCOC(O)[C@@H]2O)cc1Cc1ccc(-c2cscn2)cc1 (some centres not stated)

EC50 [5]: 63 nM | Drug metabolism [10]: Metabolite_Detected
Structure (SMILES): Cc1c(Cc2ccc(-n3cccn3)cc2)cc(C(=O)N[C@H]2CCC(O)C[C@@H]2O)c(=O)n1C (some centres not stated)

EC50 [5]: 12 nM | Drug metabolism [10]: Metabolite_Detected
Structure (SMILES): Cc1[nH]c(=O)c(C(=O)N[C@H]2CC(O)CC[C@@H]2O)cc1Cc1ccc(-n2cccn2)cc1 (some centres not stated)

Structure (SMILES): O=C(N[C@H]1C(O)CCC[C@@H]1O)c1cn(Cc2ccc(-n3cccn3)cc2)c2cccnc12 (some centres not stated)
EC50 [5]: > 249 nM | Drug metabolism [9]: Metabolite_Detected

Drug metabolism [16]: Metabolite_Detected | Drug metabolism [17]: Metabolite_Detected | Drug metabolism [18]: Metabolite_Detected | Drug metabolism [19]: Metabolite_Detected | Drug metabolism [20]: Metabolite_Detected | Drug metabolism [21]: Metabolite_Detected
Structure (SMILES): Cc1cnc(C(=O)N[C@H]2CCOC[C@@H]2O)cc1Cc1ccc(-n2cccn2)cc1

EC50 [5]: 177 nM | Drug metabolism [10]: Metabolite_Detected
Structure (SMILES): Cn1c(CO)c(Cc2ccc(-n3cccn3)cc2)cc(C(=O)N[C@H]2CCC(O)C[C@@H]2O)c1=O (some centres not stated)

Structure (SMILES): Cn1ccc(-c2ccc(Cn3cc(C(=O)N[C@H]4CCOC(O)[C@@H]4O)c4ncccc43)cc2)n1 (some centres not stated)
EC50 [5]: > 257 nM | Drug metabolism [2]: Metabolite_Detected

EC50 [5]: > 1000 nM | Drug metabolism [8]: Metabolite_Detected
Structure (SMILES): Cc1cnc(C(=O)N[C@H]2CCOC[C@@H]2O)cc1C(O)c1ccc(-n2cccn2)cc1 (stereo in doubt; 11a)

EC50 ([5]; cho): > 1000 nM
Structure (SMILES): Cc1cnc(C(=O)N[C@H]2CCOC[C@@H]2O)cc1C(O)c1ccc(-n2cccn2)cc1 (stereo in doubt; 11b)

EC50 [5]: > 4150 nM | Drug metabolism [15]: Metabolite_Detected
Structure (SMILES): Cc1cnc(C(=O)N[C@H]2CCOC[C@@H]2O)cc1C(O)c1ccc(-c2cscn2)cc1 (stereo in doubt; 14a)

EC50 [5]: > 1100 nM
Structure (SMILES): Cc1cnc(C(=O)N[C@H]2CCOC[C@@H]2O)cc1C(O)c1ccc(-c2cscn2)cc1 (stereo in doubt; 14b)

Structure (SMILES): O=C(N[C@H]1CCC(O)C[C@@H]1O)c1cn(Cc2ccc(-n3cccn3)cc2)c2cccnc12 (stereo in doubt; 20a)
EC50 [5]: 167 nM | Drug metabolism [9]: Metabolite_Detected

Structure (SMILES): O=C(N[C@H]1CCC(O)C[C@@H]1O)c1cn(Cc2ccc(-n3cccn3)cc2)c2cccnc12 (stereo in doubt; 20b)
EC50 [5]: 16 nM
